Laboratory results taken from US8410130B2, “Synthesis of 8H-3A-aza-cyclopenta [A ]indenes and 5,10-dihydropyrrolo[1,2-B]isoquinolines derivatives and their use as antitumor therapeutic agents” (Academia Sinica, priority 2007, dated 2013).
Where two headings read alike, the source gives them in different places.

How the values were obtained:
[1] = test system: CCRF-CEM/Taxol; experiment: In vitro cytotoxicity, XTT assay, taxol resistant subline; format: cell-based, human; settings: for IC50: XTT assay, 72-hr incubation; for fold of cross-resistant, CCRF-CEM/Taxol vs IC50 of the parent cell line: numbers in brackets
Excerpt: (§1) Human colon carcinoma HCT-116 cells, human prostate adenocarcinoma PC-3 and adenocarcinoma SK-OV-3 cells were obtained from American Type Culture Collection (ATCC, Rockville, Md.). Human mammary carcinoma (MX-1) tumor cells were obtained from MSKCC cell bank. The CCRF-CEM human lymphoblastic leukemia cells and their vinblastine resistant subline (CCRF-CEM/VBL, 680-fold resistance in vitro) were obtained from Dr. William Beck of the University of Illinois, Chicago, and CCRF-CEM/Taxol (330-fold resistance in vitro). Resistant cells CCRF-CEM/taxol were produced by exposing the parent cells to increasing sublethal concentration (IC50-IC90) of paclitaxel for six months.
(§2) In preparation for in vitro cytotoxicity assays, cells were cultured at an initial density 2-5×10^4 cells per milliliter. They were maintained in a 5% CO2-humidified atmosphere at 37° C. in RPMI medium 1640 (GIBCO/BRL) containing penicillin (100 units/mL), streptomycin (100 μg/mL, GIBCO/BRL), and 5% heat-inactivated FBS. For cells grown in suspension (such as CCRF-CEM and its sublines), cytotoxicity was measured, by using XTT microculture method in 96-well microtiter plates (Scudiero D A et al., Cancer Res. 1988, 48, 4827-4833). For solid tumor cells growing in a monolayer (such as MX-1 and HCT-116), cytotoxicity of the drug was determined, in duplicate, in 96-well microtiter plates by using the sulforhodamine B method (Skehan P et al., J. Natl. Cancer Inst 1990, 82, 1107-1112). For both methods, the absorbance of each well was measured with a microplate reader (Power Wave XS, Bio-Tek, Winooski, Vt.) after 72-hr incubation as described previously (Chou T-C et al., Proc. Natl. Acad. Sci. USA 2001, 98, 8113-8118). Dose-effect relationship data from 6 to 7 concentrations of each drug, in duplicate, were analyzed by using a computer program (Chou T-C et al., ComboSyn, Inc., Paramus, N J. 2005) based on the median-effect principle and plot (Chou T-C et al., Adv. Enzyme Regul. 1984, 22, 27-55; Chou T-C, Pharmacol. Rev. 2006, 58, 621-681).
(§3) The IC50 is defined by the concentration required to inhibit tumor cell growth by 50%. […] The growth inhibition of the compounds disclosed herein against human lymphoblastic leukemic cells (CCRF-CEM) and its drug-resistant sublines (resistant to vinblastine and taxol, CCRF-CEM/VBL and CCRF-CEM/taxol, respectively) is also shown in Table 5. […] Thus, the compounds disclosed herein are effective against multiple drug resistant tumors.

[2] = test system: CCRF-CEM human lymphoblastic leukemia cells; experiment: In vitro cytotoxicity, XTT assay, 72-hr incubation; format: cell-based
Excerpt: as §1, §2, §3

[3] = test system: CCRF-CEM/VBL; experiment: In vitro cytotoxicity, XTT assay, vinblastine resistant subline; format: cell-based, human; settings: for IC50: XTT assay, 72-hr incubation; for fold of cross-resistant, CCRF-CEM/VBL vs IC50 of the parent cell line: numbers in brackets
Excerpt: as §1, §2, §3

[4] = test system: Human mammary carcinoma (MX-1) tumor cells; experiment: In vitro cytotoxicity, sulforhodamine B (SRB) assay; format: cell-based; settings: 72-hr incubation
Excerpt: as §1, §2, §3

[5] = test system: Human colon carcinoma HCT-116 cells; experiment: as above; format: cell-based
Excerpt: as §1, §2, §3

[6] = Homo sapiens, HCT-116, 72-hr incubation

SMILES	IC50 ([1]; Homo sapiens, CCRF-CEM) [nM]	fold of cross-resistant, CCRF-CEM/Taxol vs IC50 of the parent cell line [1]	IC50 ([2]; Homo sapiens, CCRF-CEM) [nM]	IC50 ([3]; Homo sapiens, CCRF-CEM) [nM]	fold of cross-resistant, CCRF-CEM/VBL vs IC50 of the parent cell line [3]	IC50 ([4]; Homo sapiens) [nM]	IC50 [5, 6] [nM]	IC50 [1] [nM]	IC50 [2] [nM]	IC50 [3] [nM]	IC50 [4] [nM]	IC50 ([5]; 72-hr incubation) [nM]
OCc1c(CO)c(-c2ccc(Cl)cc2)n2c1Cc1ccccc1-2 [DA-1003, (3-(4-Chlorophenyl)-2-hydroxymethyl-8H-3a-aza-cyclopenta[a]inden-1-yl)methanol]	4220	[1.00x]	4270	2530	[0.59x]	6130	5590	–	–	–	–	–
COc1ccc(-c2c(CO)c(CO)c3n2-c2ccccc2C3)cc1 [DA-1005, (2-Hydroxymethyl-3-(4-methoxyphenyl)-8H-3a-aza-cyclopenta[a]inden-1-yl)methanol]	1660	[1.4x]	1160	1670	[1.4x]	10800	5830	–	–	–	–	–
OCc1c(CO)c(-c2ccccc2)n2c1Cc1ccccc1-2 [DA-1011, (2-hydroxymethyl-3-phenyl-8H-3a-azacyclopenta[a]inden-1-yl)-methanol]	224	[0.89x]	252	213	[0.85x]	1350	1850	–	–	–	–	–
CNC(=O)OCc1c(COC(=O)NC)c(-c2ccccc2)n2c1Cc1ccccc1-2 [DA-1022, Methylcarbamic acid 2-methylcarbamoyloxymethyl-3-phenyl-8H-3a-aza-cyclopenta[a] inden-1-ylmethylester]	556	[1.6x]	357	1620	[4.5x]	5920	761	–	–	–	–	–
OCc1c(CO)c(-c2ccc(F)cc2)n2c1Cc1ccccc1-2 [DA-1024, (3-(4-Flourophenyl)-2-hydroxymethyl-8H-3a-aza-cyclopenta[a]inden-1-yl)methanol]	–	[2.6x]	–	–	[0.96x]	–	–	11000	4250	4070	22300	8070
OCc1c(CO)c(-c2ccc(F)c(F)c2)n2c1Cc1ccccc1-2 [DA-1025, (3-(3,4-Diflourophenyl)-2-hydroxymethyl-8H-3a-aza-cyclopenta[a]inden-1-yl)methanol]	–	[1.6x]	–	–	[1.98x]	–	–	7780	4910	7270	7000	10800
CNC(=O)OCc1c(COC(=O)NC)c(-c2ccc(F)cc2)n2c1Cc1ccccc1-2 [DA-1026, Methylcarbamic acid 3-(4-flourophenyl)-2-methylcarbamoyloxymethyl-8H-3a-aza-cyclopenta[a]inden-1-ylmethyl ester]	–	[2.1x]	–	–	[2.2x]	–	–	284	137	307	744	397
CNC(=O)OCc1c(COC(=O)NC)c(-c2ccc(F)c(F)c2)n2c1Cc1ccccc1-2 [DA-1027, Methylcarbamic acid 3-(3,4-diflourophenyl)-2-methylcarbamoyloxymethyl-8H-3a-aza-cyclopenta[a]inden-1-ylmethyl ester]	–	[1.0x]	–	–	[0.99x]	–	–	644	639	632	7840	878
COc1ccc(-c2c(CO)c(CO)c3n2-c2ccccc2C3)cc1OC [DA-1097, (3-(3,4-Dimethoxyphenyl)-2-hydroxymethyl-8H-3a-aza-cyclopenta[a]inden-1-yl)methanol]	1950	[1.87x]	1040	1140	[1.1x]	11100	4090	–	–	–	–	–
CNC(=O)OCc1c(COC(=O)NC)c2n(c1C)-c1ccccc1C2 [DA-1100, methyl carbamic acid 3-methyl-2-methylcarbamoyloxymethyl-8H-3a-aza-cyclopenta[a]inden-1-yl methyl ester]	67	[0.36x]	188	126	[0.67x]	355	297	–	–	–	–	–
CCc1c(COC(=O)NC)c(COC(=O)NC)c2n1-c1ccccc1C2 [DA-1101, methyl carbamic acid 3-ethyl-2-methyl carbamoyloxymethyl-8H-3a-aza-cyclopenta[a]inden-1-ylmethyl ester]	99	[1.46x]	68	78	[1.15x]	670	707	–	–	–	–	–
COc1ccc(-c2c(CO)c(CO)c3n2Cc2ccccc2C3)cc1 [DA-1106, [2-Hydroxymethyl-3-(4-methoxyphenyl)-5,10-dihydropyrrolo[1,2-b]isoquinolin-1-yl]methanol]	232	[1.02x]	228	111	[0.49x]	1940	1030	–	–	–	–	–
CNC(=O)OCc1c(COC(=O)NC)c2n(c1C)Cc1ccccc1C2 [DA-1108, methylcarbamic acid 3-methyl-1-methylcarbamoyloxymethyl-5,10-dihydro-pyrrolo[1,2-b]isoquinolin-2-ylmethyl ester]	111	[0.87x]	128	76	[0.59x]	1680	1160	–	–	–	–	–
